The results in this text go back to PMC11172314, “Towards Enhanced Tunability of Aqueous Biphasic Systems: Furthering the Grasp of Fluorinated Ionic Liquids in the Purification of Proteins” (International Journal of Molecular Sciences, 2024).

Assay [1] deals with T1, lysozyme (Lys) (Gallus gallus, UniProt P00698).
T1 construct: Lyophilized lysozyme from chicken egg white, ≥90% purity; purchased Millipore (Darmstadt, Germany); host or cells: chicken egg white (natural source)
Put plainly: Intrinsic (tryptophan) fluorescence of lysozyme. The arrangement: species or system chicken. The conditions noted are these: 0.2 mg/mL Lys, excitation 295 nm, component 0.1–800 mM, 25 °C. From the text: (FIL), [C4C1Im][CF3SO3] (mere fluoro-containing IL), and [ N1112(OH) ][H2PO4] (globular protein stabilizer). […] Even though large changes in protein conformation can modify the intensity of tyrosine and phenylalanine fluorescence signals, their low extinction coefficients and quantum yields, as well as their relative lower sensitivity to environmental changes, make them a less appealing candidate. Tryptophan is frequently found concealed in the hydrophobic core of proteins due to its aromatic nature. […] The tryptophan release energy is particularly sensitive to the polarity (and dynamics) of the environment because the excited-state dipole moment is quite large. Reactions to denaturation, substrate binding, subunit association, and conformational transitions create variations in the tryptophan emission spectra. The spectrum shift generally known as blue shift, a shift of the maximum emission towards smaller wavelengths, denotes that the aromatic residue is buried in the native structure of the protein [67]. […] Furthermore, the amount of exposure of the fluorophores to the solvent is associated with the increase or decrease in the intensity of the emission spectrum. […] [C4C1Im][CF3SO3] and [ N1112(OH) ][H2PO4] […] Variations in lysozyme spectra are caused by ligand-induced changes in the microenvironment of tryptophan residues, either by shifting the maximum peak wavelength (blue or red shift) or by altering peak intensities. These changes can be used as a measure of the effect of the ABS phase-forming components on protein folding and unfolding.
Intrinsic fluorescence spectroscopy measurements of lysozyme’s tryptophan residues were carried out on a Spex Horiba Jobyin Yvon spectrofluorometer (HORIBA Jobin Yvon, France) using a 10 mm path length quartz cuvette. […] The excitation and emission slit widths of 2 nm were used for all the measurements. Maximum fluorescence values were attained as the average of three measurements.

For assay [2], the target named is T1, lysozyme (Lys). Kind of assay: Turbidimetry (transmittance) of lysozyme solutions. The conditions noted are these: 0.2 mg/mL Lys, IL 0.1–120 mM, 25 °C. The arrangement: species or system chicken. From the text:
Monitoring the changes in turbidity offers an insight into the protein–ionic liquid aqueous solution interactions, which allows for the assessment of the ionic liquid functionalization of the fluorinated IL vs. the mere fluoro-contaning IL ([C2C1Im][C4F9SO3] vs. [C4C1Im][CF3SO3]). […] In opposition, [C2C1Im][C4F9SO3] […] The results of Rather et al. also confirmed the significant composition and concentration dependence of the lysozyme–surfactant IL interactions, mainly in the CAC concentration regime. Additionally, an increase in turbidity is observed for both [C4C1Im][CF3SO3] and [C2C1Im][C4F9SO3] at concentrations below the first CAC of the FIL (only monomers exist in solution for both ionic liquids) in comparison with lysozyme in water (snapshots in Figure 7A,B). […]
Both turbidimetry and UV-Vis absorbance assays were carried out at 25 °C on a double-beam UV6300PL UV-Vis spectrophotometer (VWR, Leuven, Belgium) with a pair of 10 mm path length quartz cuvettes of 400 µL sample volume. […] For absorbance measurements, all spectra were acquired with 190 to 400 nm wavelength range. […] Aqueous solutions of [C4C1Im][CF3SO3] and [C2C1Im][C4F9SO3] were analyzed with concentrations varying from 0.1 to 120 mM.

T1 sequence (P00698 19-147): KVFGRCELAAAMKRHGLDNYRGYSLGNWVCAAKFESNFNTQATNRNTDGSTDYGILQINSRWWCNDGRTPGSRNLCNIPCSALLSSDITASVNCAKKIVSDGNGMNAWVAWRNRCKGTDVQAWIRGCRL

Take `CCCCn1cc[n+](C)c1.O=S(=O)([O-])C(F)(F)F` [[C4C1Im][CF3SO3]]: in assay [1], the “Lys fluorescence emission intensity with increasing component concentration” value is “increase in Lys fluorescence emission intensity” and the “Lys maximum emission wavelength with increasing component concentration” value is “red shift from 334 nm to 368 nm”. Besides, the “Turbidity (transmittance) of Lys solution with increasing IL concentration” value in assay [2] is reported as “steady turbidity profile”.
